One series deals with MT1-MMP (MMP-14) (Homo sapiens, UniProt P50281). The series can be described thus: Fluorescence activation of MT-P by activated MT1-MMP. It is filed as biochemical. The conditions noted are these: MT1-MMP 0, 4, 20 and 40 nM, 60 min, spectrofluorimetry.
The test system of a further series is MDA-MB-435 tumor. Briefly: In vivo NIR fluorescence imaging of MT1-MMP-positive tumor-bearing mice.
The subject of series [1] is MDA-MB-435 tumor-bearing mice. The series can be described thus: Ex vivo biodistribution imaging of excised tumors and organs. It is filed as in vivo. The conditions noted are these: 24 hrs post-injection, without inhibitor.
In the next series the test system is MT1-MMP. The settings on record: cited from earlier work.

Consider two substances from paper PMC3230704 (Molecular pharmaceutics, 2011).

Where no end group is shown, it is not given here.

In the case of GRIGFLRTAKGG [MT-P], the “activation of NIR fluorescent signals over the probe without MT1-MMP” value on MT1-MMP (MMP-14) is “up to 10 fold”. Also, the “onset of activation in tumor” value in the series on MDA-MB-435 tumor (5 nmol i.v., MDA-MB-435 tumor-bearing mice) is reported as “less than 1 hr”. Besides, the “fluorescent signal in the tumor at 48 hrs post-injection” value in the series on MDA-MB-435 tumor (48 hrs post-injection) was “not detectable”. In series [1], the “biodistribution of activated fluorescence” value is “activated predominantly in the tumor and liver over other organs”.
RIGFLR: the “specificity constant (kcat/Km)” value in the series with MT1-MMP is reported as 777,200 M^−1s^−1.
